Experimental data: patent publication EP2767273A1, “Death-associated protein kinases, inhibitors and activators thereof for use in pharmaceutical compositions and in predictive medicine” (UNIVERSITÄTSKLINIKUM ERLANGEN, priority 2013, dated 2014)

Legend:
DAPK [1] = assay: DAPK protein expression/activation in HCEC cells (Western blotting); type: cell-based, human
Method: (§1) HCEC cells were kindly provided by Professor Steinberg Pablo (Institute for Food Toxicology and Analytical Chemistry, University of Veterinary Medicine Hannover, Germany) and maintained as previously described.^31 After 24 hours of seeding, cells were either stimulated with 0.66 ng/ml TNF (ImmunoTools) for various time points. For inhibitor experiments cells were pre-incubated for one to two hours with the corresponding inhibitors.
(§2) Protein concentration was measured in duplicates using Bio-rad Dc Protein Assay (BioRad Laboratories, Hercules, CA). Equal amounts of protein were separated by 10% or 12% SDS-PAGE using Laemmli buffer system. Proteins were transferred electrophoretically to nitrocellulose membrane (Millipore Corporation, Billerica, MA, USA) and detected as recently described^33 using following antibodies, anti-DAPK (BD Transduction Laboratories, Lexington NY), anti-pDAPK^S308 (Sigma), anti-STAT3, anti-pSTAT3^γ705, anti-caspase3 (Cell Signaling Technology Inc.), anti-ß-actin (Sigma), or anti-GAPDH (Abnova GmbH, Germany).
Silencing of DAPK expression in HCEC cells was performed by the siRNA technique according to the manufacturer's instructions (Dharmacon, Chicago, IL, USA). […] At the end of the incubation period supernatants and cells were harvested and stored at -80°C until analyzed further. The knockdown efficiency was determined by Western blotting.

IL-6 [2] = assay: IL-6 secretion in HCEC cell culture supernatants (ELISA); type: cell-based, human; details: HCEC cells
Method: as §1
IL-6 and IL-8 secretion was analyzed by ELISA according to the manufacturer's instructions (BD Biosciences; Heidelberg, Germany). […] After blocking (300 µl 3% BSA in PBS, 2 hours, RT) and washing (0.1% Tween in PBS, (PBS-T), 100 µl of undiluted or diluted supernatant was added and incubated (2 hours, RT or overnight 4°C). Thereafter, wells were washed and incubated (1.5 hours, RT) with detection antibody (1:250 diluted in 1% BSA in PBS-T) + enzyme reagent (Streptavidin-horseradish peroxidase conjugate; 1:250 diluted in detection antibody). After washing, TMB (1:1) substrate was added to each well and incubated in a dark for 20-30 minutes. Reaction was stopped with stop solution (100 µl 1 M H2SO4) and absorption was measured using spectrophotometer (Victor X3, Perkin-elmer) at a wavelength of 450 nm with a wavelength correction at 570 nm.

STAT3 = STAT3 Y705 phosphorylation in HCEC cells (Western blotting); type: cell-based, human
Method: as §1, §2

DAPK [3] = assay: DAPK mRNA expression in HCEC cells (real time RT-PCR); type: cell-based, human; details: for DAPK mRNA enhanced: 7 µM Stattic + TNF, relative to TNF treatment
Method: as §1
Expression of IL-6, IL-8, and DAPK mRNA were analyzed by real time RT-PCR. RNA isolation (mRNeasy RNA isolation kit) and cDNA synthesis (Quantitect reverse transcriptase kit) were performed according to the manufacturer's instructions (Qiagen, Hilden, Germany). 1 µl of cDNA was amplified in a thermal cycler (Biorad CFX-96) with corresponding primers in a total volume of 25 µl using Quantifast SYBR green kit (Qiagen) under the following conditions: 95°C for 5 minutes followed by 26-40 cycles of 95°C for 10 s and 60°C for 30 s. The following primers were used, forward and reverse respectively: DAPK, 5'-[…]-3' and 5'-GATCCCGAGTGGCCAAA-3'; IL-6, 5'-[…]-3' and 5'-[…]-3'; IL-8, 5'-[…]-3' and 5'-[…]-3'; ß2microglobulin (house-keeping gene), 5'-[…]-3' and 5'-[…]-3'; murine DAPK, 5'-[…]-3' and 5'-[…]-3'; murine GAPDH (house-keeping gene), 5'-[…] -3' and 5'-[…] -3'. The results were expressed as fold induction compared to unstimulated cells after normalising to house-keeping gene. All primers were purchased from metabion (metabion international AG, Martinsried, Germany).

IL-6 [4] = assay: IL-6 mRNA expression in HCEC cells (real time RT-PCR); type: cell-based, human; details: AG490
Method: as §1
Expression of IL-6, IL-8, and DAPK mRNA were analyzed by real time RT-PCR. RNA isolation (mRNeasy RNA isolation kit) and cDNA synthesis (Quantitect reverse transcriptase kit) were performed according to the manufacturer's instructions (Qiagen, Hilden, Germany). 1 µl of cDNA was amplified in a thermal cycler (Biorad CFX-96) with corresponding primers in a total volume of 25 µl using Quantifast SYBR green kit (Qiagen) under the following conditions: 95°C for 5 minutes followed by 26-40 cycles of 95°C for 10 s and 60°C for 30 s. […] The results were expressed as fold induction compared to unstimulated cells after normalising to house-keeping gene. […]

AOM-DSS tumors = assay: AOM+DSS mouse model of colitis-associated tumors, treatment with DAPK-inhibitor; type: in vivo, mice
Method: as §2
Experimental colitis-associated tumorigenesis was performed as previously described.^43 In brief, 10mg/kg Azoxymethane (AOM; Sigma) was injected intraperitoneally into 6-8 week old C57BL/6J mice, followed by 3 cycles of DSS in drinking water. Each DSS-cycle was composed of DSS (2.5 % (w/v); MP Biomedicals) in drinking water for 7 days, followed by a recovery phase with regular drinking water for 14 days. All tumors were harvested at day 65-70.

[5] = AOM-DSS tumors, treated mice vs untreated control mice

## N#C/C(=C\c1ccc(O)c(O)c1)C(=O)NCc1ccccc1 [AG490, Tyrphostin AG 490]
DAPK [1]; 20 µM AG490 + TNF
  TNF-induced DAPK protein expression: elevated
IL-6 [2]; AG490
  TNF-induced IL-6 secretion down-regulated: 50%
STAT3; 20 µM AG490 prior to TNF treatment
  pSTAT3Y705 levels decreased: 35%
DAPK [3]; 20 µM AG490 pre-treatment + TNF, after 72 hours
  DAPK mRNA expression: 3.3 fold
IL-6 [4]
  TNF-induced IL-6 mRNA expression down-regulated: 50%

## O=C1OC(c2ccccc2)=N/C1=C\c1cccnc1 [DAPK inhibitor, (4Z)-2-phenyl-4-(pyridine-3-ylmethylidene)-4,5-dihydro-1,3-oxazol-5-one]
IL-6 [2]; 0.66 ng/ml TNF, 10 µM DAPK inhibitor, after 6 and 24 hours
  TNF-induced IL-6 secretion: significantly increased
STAT3; 0.66 ng/ml TNF, 10 µM DAPK inhibitor, after 24, 48, and 72 hours
  STAT3Y705 phosphorylation: enhanced
AOM-DSS tumors; AOM-DSS mice, with vs without DAPK-inhibitor
  tumors in the gut (endoscopy): less and smaller tumors
AOM-DSS tumors; AOM-DSS mice, untreated controls: non-invasive growth, low grade atypia, simple and tubular architecture
  tumor growth, atypia and architecture (immunohistochemical evaluation): invasively growing, showed high grade atypia, and a complex, cribiform architecture
AOM-DSS tumors; [5]
  NFκB inhibitor plκß in tumors (Western Blotting): up-regulated
  tumor suppressor p53 in tumors (Western Blotting): down-regulated

## O=[N+]([O-])c1ccc2c(c1)S(=O)(=O)C=C2 [Stattic]
DAPK [1]; 7 µM Stattic + TNF
  DAPK protein: enhanced
STAT3; 7 µM Stattic pre-treatment
  TNF-induced STAT3Y705 phosphorylation down-regulated: up to 45%
DAPK [3]; after 48 hours
  DAPK mRNA enhanced: 1-5 fold
DAPK [3]; after 72 hours
  DAPK mRNA enhanced: 2.8 fold
